What was measured:
B16 melanoma [1] = assay: Antitumor activity in vivo, tumor growth; parameters: species or system mouse; conditions: BDF1 mice, i.p., CP 100 mg/kg days 2, 7, cPt 4 mg/kg days 2–9, 4 300 mg/kg days 2–9
Description: (§1) Antitumor activity in vivo. The B16 mouse melanoma was used as a tumor model. The B16 melanoma tumor strain was induced in male BDF1 mice by subcutaneous inoculation of 0.2–0.5 mL of a suspension of tumor tissue in medium 199 at intervals of 12–16 days. For the experiments, BDF1 mice were inoculated with 0.3 mL of a suspension of tumor tissue diluted in a 0.9% NaCl solution at a ratio of 1:5 subcutaneously on the right side.
(§2) Compound 4 was dissolved in a 0.9% NaCl solution with 1% DMSO. […] Control animals were injected intraperitoneally with 1% DMSO in saline (0.9% NaCl) in the same volumes as the test compounds.
Tumor growth was monitored on days 0, 6, 8, 10, 13, 15, 17, and 20 by measuring the tumor size with a digital caliper. The mean tumor diameter was calculated using the formula:D = 3√a × b × c,(2) where a, b, and c are mutually perpendicular tumor diameters.

B16 melanoma [2] = assay: Antimetastatic activity in vivo, lung metastases; parameters: species or system mouse; conditions: lungs, B16 melanoma, BDF1 mice, doses as in Table 5; for Number of Animals without Metastases: of 6 animals in the group
Description: as §1, §2
And MNMcont. are the mean number of metastases in the experimental and control groups, respectively.

A-172 = assay: Cytotoxicity, MTT test; type: cell-based, human
Description: (§3) Cell culture. A-172 (human glioblastoma cells), HepG2 (human hepatocellular carcinoma cells), M-HeLa (human cervical adenocarcinoma cells, M subclone), Vero (African green monkey kidney epithelial cells), and FetMSC (human embryonic mesenchymal stem cells) were purchased from the Russian Collection of Cell Cultures of Vertebrates (Institute of Cytology RAS, St. Petersburg, Russia). The U-251 MG cell line (human glioblastoma-astrocytoma) was purchased from the European Collection of Authenticated Cell Cultures (Salisbury, UK). All cells were grown at 37 °C in an atmosphere of 5% CO2. A-172 and Vero cells were cultured in DMEM medium (PanEco, Moscow, Russia). HepG2, HeLa, and U-251 MG cells were cultured in EMEM medium (PanEco). FetMSC cells were cultured in F12/DMEM medium (PanEco). All incubation media were supplemented with 10% fetal calf serum (BioWest, Nuaillé, France), 50 U/mL penicillin, and […] streptomycin (PanEco). Additionally, media for HeLa, HepG2, and U-251 MG cells were supplemented with 2 mM glutamine (PanEco) and 1% essential amino acids (PanEco), media for A-172 and Vero cells were supplemented with 4 mM glutamine, and the medium for FetMSC cells was supplemented with 3 mM glutamine. The medium for U-251 MG cells was additionally supplemented with 1 mM sodium pyruvate (PanEco).
(§4) Cytotoxicity studies. The cytotoxicity of the compounds was assessed using the MTT test. Cells were seeded into 96-well plates at varying concentrations of 5 × 10^4 cells/mL (A-172, Vero and HeLa), 7 × 10^4 cells/mL (HepG2 and U-251 MG), and 10 × 10^4 cells/mL (FetMSC). The studied compounds were added to the incubation medium 24 h after seeding at concentrations ranging from 7.8 μM to 500 μM. All compounds were dissolved in DMSO and diluted with the incubation medium to their final concentrations just before use. The incubation medium in wells was aspirated and replaced with medium containing the studied compounds. The final concentration of DMSO in all samples was 0.1%. Control samples were treated with 0.1% DMSO. After 72 h of exposure, 3-(4,5-dimethylthiazol-2-yl)-2,5-diphenyl-2H-tetrazolium bromide (MTT) (Dia-M, Moscow, Russia) was added to the incubation medium at a concentration of 0.5 mg/mL. The resulting MTT-formazan crystals were dissolved in DMSO. The optical density was measured at 570 nm with a background wavelength of 620 nm using a Spark 10M plate reader. IC50 values were determined using a median effect analysis from the dose–effect relationships.

HeLa = assay: Cytotoxicity, MTT test; type: cell-based, human; conditions: 72 h of exposure
Description: as §3, §4

HepG2 = assay: Cytotoxicity, MTT test; type: cell-based, human
Description: as §3, §4

Vero = assay: Cytotoxicity, MTT test; type: cell-based, African green monkey; conditions: 72 h of exposure
Description: as §3, §4

MMP-14 = target: T1, MMP-14 (Homo sapiens, UniProt P50281); assay: MMP activity assay, fluorogenic substrate (MMP Inhibitor Profiling Kit); type: biochemical; conditions: read-out: MMP-inhibiting activity IC50, MMP-14
T1 construct: the BML- prefix points to Enzo Life Sciences, own knowledge BML-AK308
Description: (§5) Determination of MMP activity. A fluorescently labeled substrate probe containing a fluorescent label and a fluorescence quencher, was utilized for this study. […] Enzyme activity was assessed using the MMP Inhibitor Profiling Kit (Product # BML-AK308, New York, NY, USA) according to the manufacturer’s recommendations. The nonspecific inhibitor NNGH was used as a positive control. The fluorescence of the fluorogenic substrate OmniMMP^TM RED was measured at wavelengths Ex/Em = 545/576 nm using a Spark 10M multimode plate reader (Tecan, Zurich, Switzerland). Reaction rates were expressed in relative fluorescence units (RFUs) per minute. The activity of MMPs in the presence of the studied compounds was determined as follows:Activity, % = (Vinh/Vcont) × 100,(1) where V is the initial reaction rate (RFUs/min) in the presence (Vinh) and absence (Vcont) of the studied compounds.
(§6) All tested compounds were dissolved in DMSO. The final concentration of DMSO in all samples was 0.1%. Control samples were treated with 0.1% DMSO.

MMP-2 = target: T2, MMP-2 (Homo sapiens, UniProt P08253); assay: as above; type: biochemical; conditions: read-out: MMP-inhibiting activity IC50, MMP-2
T2 construct: the BML- prefix points to Enzo Life Sciences, own knowledge BML-AK308
T2 sequence (P08253 110-446 limits assumed): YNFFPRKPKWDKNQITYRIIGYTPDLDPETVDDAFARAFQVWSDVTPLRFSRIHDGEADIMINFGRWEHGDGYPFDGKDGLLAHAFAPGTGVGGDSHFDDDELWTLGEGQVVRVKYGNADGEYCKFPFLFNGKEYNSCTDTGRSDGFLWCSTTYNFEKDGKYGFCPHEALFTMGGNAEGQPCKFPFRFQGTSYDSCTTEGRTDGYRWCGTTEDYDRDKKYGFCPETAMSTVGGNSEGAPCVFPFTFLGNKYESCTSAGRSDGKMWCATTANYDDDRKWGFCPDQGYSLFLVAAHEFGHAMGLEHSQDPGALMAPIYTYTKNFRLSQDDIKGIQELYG
Description: as §5, §6

MMP-3 = target: T3, MMP-3 (Homo sapiens, UniProt P08254); assay: as above; type: biochemical; conditions: read-out: MMP-inhibiting activity IC50, MMP-3
T3 construct: the BML- prefix points to Enzo Life Sciences, own knowledge BML-AK308
T3 sequence (P08254 100-272 limits assumed): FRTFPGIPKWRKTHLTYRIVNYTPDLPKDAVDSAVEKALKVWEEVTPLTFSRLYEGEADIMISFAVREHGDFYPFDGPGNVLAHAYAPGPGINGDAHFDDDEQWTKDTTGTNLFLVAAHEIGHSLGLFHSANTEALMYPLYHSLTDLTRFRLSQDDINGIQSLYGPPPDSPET
Description: as §5, §6

MMP-9 = target: T4, MMP-9 (Homo sapiens, UniProt P14780); assay: as above; type: biochemical; conditions: read-out: MMP-inhibiting activity IC50, MMP-9
T4 construct: the BML- prefix points to Enzo Life Sciences, own knowledge BML-AK308
T4 sequence (P14780 107-444 limits assumed): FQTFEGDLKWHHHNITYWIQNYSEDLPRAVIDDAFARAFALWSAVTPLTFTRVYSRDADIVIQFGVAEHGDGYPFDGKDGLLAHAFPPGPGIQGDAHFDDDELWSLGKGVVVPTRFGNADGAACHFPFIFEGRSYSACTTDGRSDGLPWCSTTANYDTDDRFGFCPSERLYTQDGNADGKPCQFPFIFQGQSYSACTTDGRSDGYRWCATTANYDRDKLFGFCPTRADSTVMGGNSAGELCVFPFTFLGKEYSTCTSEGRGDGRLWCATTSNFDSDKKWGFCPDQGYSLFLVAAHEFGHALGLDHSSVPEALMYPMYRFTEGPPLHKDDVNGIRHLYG
Description: as §5, §6

U-251 MG = assay: Cytotoxicity, MTT test; type: cell-based; conditions: Homo sapiens, 72 h of exposure
Description: as §3, §4

FetMSC = assay: Cytotoxicity, MTT test; type: cell-based, human; conditions: Homo sapiens; 72 h of exposure, MTT
Description: as §3, §4

[3] = Cytotoxicity, MTT test, statements on all cell lines studied; type: cell-based; conditions: human, African green monkey, 72 h of exposure, summary over cell lines, read-out: cytotoxicity IC50, cells in general
Description: as §3, §4

[4] = Homo sapiens, A 172, 72 h of exposure
[5] = Homo sapiens, HepG2, 72 h of exposure

Structure (SMILES) | IC50 (MMP-14) | IC50 (MMP-2) | IC50 (MMP-3) | IC50 (MMP-9) | Tumor Growth Inhibition, % Day 10 (B16 melanoma [1]) | Tumor Growth Inhibition, % Day 13 (B16 melanoma [1]) | Tumor Growth Inhibition, % Day 15 (B16 melanoma [1]) | Tumor Growth Inhibition, % Day 17 (B16 melanoma [1]) | Tumor Growth Inhibition, % Day 20 (B16 melanoma [1]) | % Inhibition of Metastases (B16 melanoma [2]) | Mean Number of Metastases per Mouse (B16 melanoma [2]) | Metastasis Rate, % (B16 melanoma [2]) | Number of Animals without Metastases (B16 melanoma [2]) | IC50 (U-251 MG) | IC50 (A-172; [4]) | IC50 (FetMSC) | IC50 (HeLa; Homo sapiens, HeLa) | IC50 (HepG2; [5]) | IC50 (Vero; Chlorocebus sabaeus, Vero) | IC50 at 72 h [3] | further results
O=P1(N(CCCl)CCCl)NCCCO1 (stereo not shown) [CP, cyclophosphamide] | – | – | – | – | 52.94% | 38.10% | 43.20% | 27.43% | 14.02% | 39.3% | 7.1 ± 2.2 | 100% | 0 | – | – | – | – | – | – | – | –
N.N.[Cl][Pt][Cl] [Cisplatin, cisplatin] | – | – | – | – | 76.47% | 61.11% | 52.07% | 32.00% | 9.54% | 71.9% | 3.3 ± 2.4 | 83.3% | 1 | – | – | – | – | – | – | – | IC50 (A-172; 72 h of exposure): 8.46 ± 0.92 µM; IC50 (HeLa): 11.7 ± 2.41 µM; IC50 (HepG2; 72 h of exposure): 13.2 ± 1.62 µM; IC50 (Vero): 10.7 ± 1.45 µM

More lines, main results first:

IC50 (MMP-14) | IC50 (MMP-2) | IC50 (MMP-3) | IC50 (MMP-9) | Structure (SMILES) | Tumor Growth Inhibition, % Day 10 (B16 melanoma [1]) | Tumor Growth Inhibition, % Day 13 (B16 melanoma [1]) | Tumor Growth Inhibition, % Day 15 (B16 melanoma [1]) | Tumor Growth Inhibition, % Day 17 (B16 melanoma [1]) | Tumor Growth Inhibition, % Day 20 (B16 melanoma [1]) | % Inhibition of Metastases (B16 melanoma [2]) | Mean Number of Metastases per Mouse (B16 melanoma [2]) | Metastasis Rate, % (B16 melanoma [2]) | Number of Animals without Metastases (B16 melanoma [2]) | IC50 (U-251 MG) | IC50 (A-172; [4]) | IC50 (FetMSC) | IC50 (HeLa; Homo sapiens, HeLa) | IC50 (HepG2; [5]) | IC50 (Vero; Chlorocebus sabaeus, Vero) | IC50 at 72 h [3] | further results
> 10 µM | > 10 µM | > 10 µM | > 10 µM | O=C(CCC(=O)NNC(=O)c1ccccc1[N+](=O)[O-])NO [Compound 1, N-hydroxy-4-[2-(2-nitrobenzoyl)hydrazinyl]-4-oxobutanamide] | – | – | – | – | – | – | – | – | – | > 500 µM | > 500 µM | > 500 µM | 377 ± 25.2 µM | 393 ± 26.2 µM | > 500 µM | > 100 µM | –
> 10 µM | > 10 µM | > 10 µM | > 10 µM | O=C(CCC(=O)NNC(=O)c1cccc([N+](=O)[O-])c1)NO [Compound 2, N-hydroxy-4-[2-(3-nitrobenzoyl)hydrazinyl]-4-oxobutanamide] | – | – | – | – | – | – | – | – | – | > 500 µM | > 500 µM | > 500 µM | 185 ± 15.3 µM | 213 ± 15.3 µM | > 500 µM | > 100 µM | –
> 10 µM | > 10 µM | > 10 µM | > 10 µM | O=C(CCC(=O)NNC(=O)c1ccc([N+](=O)[O-])cc1)NO [Compound 3, N-hydroxy-4-[2-(4-nitrobenzoyl)hydrazinyl]-4-oxobutanamide] | – | – | – | – | – | – | – | – | – | > 500 µM | > 500 µM | > 500 µM | 237 ± 14.2 µM | 252 ± 15.8 µM | > 500 µM | > 100 µM | –

Reference: publication PMC10671431, “New Derivatives of N-Hydroxybutanamide: Preparation, MMP Inhibition, Cytotoxicity, and Antitumor Activity” (International Journal of Molecular Sciences, 2023)
